Biological target: T1, Aurora-A(h) (Homo sapiens, UniProt O14965)
T1 construct: purchased Millipore (KinaseProfiler service); also Reaction Biology Corp. (Kinase Hotspot)
T1 sequence (O14965 1-403): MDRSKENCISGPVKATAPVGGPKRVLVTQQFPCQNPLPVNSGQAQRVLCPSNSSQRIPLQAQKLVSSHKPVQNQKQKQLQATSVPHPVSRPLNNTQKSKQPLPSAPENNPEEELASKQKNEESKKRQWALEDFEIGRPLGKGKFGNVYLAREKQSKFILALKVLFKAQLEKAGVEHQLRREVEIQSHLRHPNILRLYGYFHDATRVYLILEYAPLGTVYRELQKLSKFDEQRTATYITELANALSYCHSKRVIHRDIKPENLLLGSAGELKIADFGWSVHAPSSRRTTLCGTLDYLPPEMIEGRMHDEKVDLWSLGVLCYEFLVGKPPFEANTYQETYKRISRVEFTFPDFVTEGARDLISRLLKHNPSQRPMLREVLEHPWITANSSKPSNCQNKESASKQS
Assay: Aurora-A kinase assay (KinaseProfiler Service Assay Protocols, Millipore; also Kinase Hotspot, Reaction Biology Corp.)
Assay type: biochemical
Settings: compound concentration 1 μM
Method: This example illustrated Aurora Kinase Assays of selected Compounds from this invention (referred to Daniele Fancelli et al, J. Med. Chem., 2006, 49 (24), pp 7247-7251). The KinaseProfiler™ Service Assay Protocols (Millipore) were used to test the kinase inhibiting activity of novel compounds from this invention. To do this, the buffer composition was as: 20 mM MOPS, 1 mM EDTA, 0.01% Brij-35, 5% Glycerol, 0.1% β-mercaptoethanol, 1 mg/mL BSA. Test compounds were initially dissolved in DMSO at the desired concentration, then serially diluted to the kinase assay buffer. In a final reaction volume of 25 μL, Aurora-A(h) (5-10 mU) is incubated with 8 mM MOPS pH 7.0, 0.2 mM EDTA, 200 μM LRRASLG (Kemptide), 10 mM MgAcetate and [γ33P-ATP]. The reaction was initiated by the addition of the MgATP mix. After incubation for 40 minute at room temperature, the reaction was stopped by addition of 5 μL of a 3% phosphoric acid solution. 10 μL of the reaction was then spotted onto a P30 filtermat and washed three times for 5 minutes in 50 mM phosphoric acid and once in methanol prior to drying and scintillation counting. Wells containing substrate but no kinase and wells containing a phosphopeptide control were used to set 0% and 100% phosphorylation value, respectively.
Also Kinase Hotspot SM kinase assay was used to test the compounds for IC50 or % inhibitions (Reaction Biology Corp.). Inhibitor IC50 values were determined by titration of compound at the optimal kinase concentration (Kinase EC50).

| inhibition at 1 µM | Compound |
| --- | --- |
| < 50% | CC(=O)Nc1ccc(Sc2nc(CC(C)C)nc(-n3cc(C)sc3=N)n2)cc1 [Example 69] |
| < 50% | Cc1cn(-c2nc(Sc3ccc(NC(=O)C4CC4)cc3)nc(N3CCN(C)CC3)n2)c(=N)s1 [Example 70] |
| > 90% | Cc1cnc(Nc2nc(Sc3ccc(NC(=O)C(C)C)cc3)nc(N3CCN(C)CC3)n2)s1 [Example 71] |
| < 50% | CC(=O)Nc1ccc(Sc2nc(CC(C)C)nc(Nc3ncc(C)s3)n2)cc1 [Example 72] |
| > 90% | CC(=O)Nc1ccc(Sc2nc(Nc3ncc(C)s3)nc(N3CCN(C)CC3)n2)cc1 [Example 73] |
| < 50% | CCc1nc(Nc2ncc(C)s2)nc(N2CCN(C)CC2)n1 [Example 75] |
| > 50% | Cc1cc(Nc2nc(Sc3ccc(NC(=O)C4CC4)cc3)nc(N3CCN(C)CC3)n2)on1 [Example 76] |
| < 50% | Cc1nnc(Nc2nc(Sc3ccc(NC(=O)C4CC4)cc3)nc(N3CCN(C)CC3)n2)s1 [Example 77] |
| < 50% | Cc1cc(Nc2nc(Sc3ccc(NC(=O)C4CC4)cc3)nc(N3CCN(C)CC3)n2)sn1 [Example 78] |
| > 90% | CC(C)C(=O)Nc1ccc(Sc2nc(Nc3cc(C4CC4)[nH]n3)nc(C3CC3)n2)cc1 [Example 79] |
| > 90% | CCC(=O)Nc1ccc(Sc2nc(Nc3cc(C4CC4)[nH]n3)nc(C3CC3)n2)cc1 [Example 81] |
| > 90% | CCC(=O)Nc1ccc(Sc2nc(Nc3cc(C)[nH]n3)nc(C3CC3)n2)cc1 [Example 82] |
| > 90% | CCC(=O)Nc1ccc(Sc2nc(CC)nc(Nc3cc(C)[nH]n3)n2)cc1 [Example 83] |
| > 90% | CCC(=O)Nc1ccc(Sc2nc(CC)nc(Nc3cc(C4CC4)[nH]n3)n2)cc1 [Example 84] |
| > 90% | CCC(=O)Nc1ccc(Sc2nc(C)nc(Nc3cc(C)[nH]n3)n2)cc1 [Example 86] |
| > 90% | CCC(=O)Nc1ccc(Sc2nc(C)nc(Nc3cc(C4CC4)[nH]n3)n2)cc1 [Example 87] |
| > 90% | Cc1cc(Nc2nc(Sc3ccc(NC(=O)C4CC4)cc3)nc(N3CCOCC3)n2)n[nH]1 [Example 88] |
| > 90% | Cc1cc(Nc2nc(Sc3ccc(NC(=O)C4CC4)cc3)nc(N3CCCC3)n2)n[nH]1 [Example 89] |
| > 90% | Cc1cc(Nc2nc(NCCCN3CCOCC3)nc(Sc3ccc(NC(=O)C4CC4)cc3)n2)n[nH]1 [Example 90] |
| > 90% | Cc1cc(Nc2nc(NCCN(C)C)nc(Sc3ccc(NC(=O)C4CC4)cc3)n2)n[nH]1 [Example 91] |
| > 50% | Cc1cc(Nc2nc(Sc3ccc(NC(=O)C4CC4)cc3)nc(N(C)CCN(C)C)n2)n[nH]1 [Example 92] |
| > 90% | CCCCNc1nc(Nc2cc(C)[nH]n2)nc(Sc2ccc(NC(=O)C3CC3)cc2)n1 [Example 93] |
| > 90% | CCN(CC)c1nc(Nc2cc(C)[nH]n2)nc(Sc2ccc(NC(=O)C3CC3)cc2)n1 [Example 94] |
| > 90% | Cc1cc(Nc2nc(Sc3ccc(NC(=O)C4CC4)cc3)nc(N3CCN(CCO)CC3)n2)n[nH]1 [Example 96] |
| > 90% | Cc1cc(Nc2nc(N)nc(Sc3ccc(NC(=O)C4CC4)cc3)n2)n[nH]1 [Example 97] |
| < 50% | CCc1nc(Nc2cc(C)[nH]n2)nc(N2CCN(C)CC2)n1 [Example 103] |
| > 50% | Cc1cc(Nc2nc(Sc3ccc(C(=O)NC4CC4)cc3)nc(N3CCN(C)CC3)n2)n[nH]1 [Example 106] |

Continued, compound first:

| Compound | inhibition at 1 µM |
| --- | --- |
| Cc1cc(Nc2nc(Sc3ccc(NC(=O)C4CC4)cc3)nc(N3CCN(C)CC3)n2)n[nH]1 [Example 2] | > 90% |
| CCc1nc(Nc2cc(C)[nH]n2)nc(Sc2ccc(NC(=O)C3CC3)cc2)n1 [Example 4] | > 90% |
| Cc1cc(Nc2nc(Sc3ccc(NC(=O)C4CC4)cc3)nc(C3CC3)n2)n[nH]1 [Example 6] | > 90% |
| CN1CCN(c2nc(Nc3nc[nH]n3)nc(Sc3ccc(NC(=O)C4CC4)cc3)n2)CC1 [Example 8] | < 50% |
| CN1CCN(c2nc(Nc3nc4ccccc4[nH]3)nc(Sc3ccc(NC(=O)C4CC4)cc3)n2)CC1 [Example 9] | > 50% |
| Cc1cnc(Nc2nc(Sc3ccc(NC(=O)C4CC4)cc3)nc(N3CCN(C)CC3)n2)s1 [Example 10] | > 90% |
| CN1CCN(c2nc(Nc3nncs3)nc(Sc3ccc(NC(=O)C4CC4)cc3)n2)CC1 [Example 11] | < 50% |
| Cc1cc(Nc2nc(Sc3ccc(NC(=O)C4CC4)cc3)nc(N3CCN(c4ccncc4)CC3)n2)n[nH]1 [Example 12] | > 90% |
| CCc1nc(Nc2cc(C)[nH]n2)nc(N2CCN(c3ccncc3)CC2)n1 [Example 13] | > 50% |
| O=C(Nc1ccc(Sc2nc(Nc3ncc[nH]3)nc(-c3ccccc3)n2)cc1)C1CC1 [Example 16] | < 50% |
| Cc1cnc(Nc2nc(Sc3ccc(NC(=O)C4CC4)cc3)nc(N3CCN(CCO)CC3)n2)s1 [Example 19] | > 90% |
| Cc1cnc(Nc2nc(Sc3ccc(NC(=O)C4CC4)cc3)nc(N3CCN(c4ccncc4)CC3)n2)s1 [Example 20] | > 90% |
| Cc1cnc(Nc2nc(Sc3ccc(NC(=O)C4CC4)cc3)nc(N3CCOCC3)n2)s1 [Example 21] | > 90% |
| CCOC(=O)c1cc(Nc2nc(Sc3ccc(NC(=O)C4CC4)cc3)nc(N3CCN(C)CC3)n2)n[nH]1 [Example 30] | > 90% |
| Cc1cnc(Nc2nc(NCCCN3CCOCC3)nc(Sc3ccc(NC(=O)C4CC4)cc3)n2)s1 [Example 38] | > 90% |
| Cc1cnc(Nc2nc(NCCN(C)C)nc(Sc3ccc(NC(=O)C4CC4)cc3)n2)s1 [Example 39] | > 90% |
| Cc1cnc(Nc2nc(Sc3ccc(NC(=O)C4CC4)cc3)nc(N(C)CCN(C)C)n2)s1 [Example 40] | > 50% |
| CCCCNc1nc(Nc2ncc(C)s2)nc(Sc2ccc(NC(=O)C3CC3)cc2)n1 [Example 41] | < 50% |
| CCN(CC)c1nc(Nc2ncc(C)s2)nc(Sc2ccc(NC(=O)C3CC3)cc2)n1 [Example 42] | > 50% |

| Compound | inhibition at 1 µM |
| --- | --- |
| Cc1cnc(Nc2nc(Sc3ccc(NC(=O)C4CC4)cc3)nc(N3CCCCC3)n2)s1 [Example 44] | > 50% |
| Cc1cc(Nc2nc(Sc3ccc(N)cc3)nc(C3CC3)n2)n[nH]1 [Example 45] | > 50% |
| Cc1cnc(Nc2nc(N3CCN(C)CC3)nc(N3CCN(C)CC3)n2)s1 [Example 47] | < 50% |
| Cc1cnc(Nc2nc(Sc3ccc(N)cc3)nc(N3CCN(C)CC3)n2)s1 [Example 48] | > 50% |
| Cc1cnc(Nc2nc(Sc3cccc(N)c3)nc(N3CCN(C)CC3)n2)s1 [Example 49] | > 50% |
| CN1CCN(c2nc(Nc3ncc(Cl)s3)nc(Sc3ccc(NC(=O)C4CC4)cc3)n2)CC1 [Example 50] | > 90% |
| CC(C)c1cnc(Nc2nc(Sc3ccc(NC(=O)C4CC4)cc3)nc(N3CCN(C)CC3)n2)s1 [Example 52] | > 90% |
| CN1CCN(c2nc(Nc3cc(C4CC4)[nH]n3)nc(Sc3ccc(NC(=O)C4CC4)cc3)n2)CC1 [Example 53] | > 90% |
| CN1CCN(c2nc(Nc3cc(C(C)(C)C)[nH]n3)nc(Sc3ccc(NC(=O)C4CC4)cc3)n2)CC1 [Example 54] | > 50% |
| CN1CCN(c2nc(Nc3cc(C4CCC4)[nH]n3)nc(Sc3ccc(NC(=O)C4CC4)cc3)n2)CC1 [Example 55] | > 90% |
| CC(C)c1cc(Nc2nc(Sc3ccc(NC(=O)C4CC4)cc3)nc(N3CCN(C)CC3)n2)n[nH]1 [Example 56] | > 50% |
| CCCc1cc(Nc2nc(Sc3ccc(NC(=O)C4CC4)cc3)nc(N3CCN(C)CC3)n2)n[nH]1 [Example 57] | < 50% |
| CCc1nc(Nc2ncc(C)s2)nc(Sc2ccc(NC(=O)C3CC3)cc2)n1 [Example 58] | < 50% |
| Cc1cnc(Nc2nc(Sc3ccc(NC(=O)C4CC4)cc3)nc(C3CC3)n2)s1 [Example 59] | > 50% |
| CN1CCN(c2nc(Nc3nccs3)nc(Sc3ccc(NC(=O)C4CC4)cc3)n2)CC1 [Example 60] | < 50% |
| Cc1nc(Nc2nc(Sc3ccc(NC(=O)C4CC4)cc3)nc(N3CCN(C)CC3)n2)sc1C [Example 61] | < 50% |
| Cc1csc(Nc2nc(Sc3ccc(NC(=O)C4CC4)cc3)nc(N3CCN(C)CC3)n2)n1 [Example 64] | < 50% |
| Cc1cn(-c2nc(Sc3ccc(NC(=O)C(C)C)cc3)nc(N3CCN(C)CC3)n2)c(=N)s1 [Example 66] | < 50% |
| CC(=O)Nc1ccc(Sc2nc(N3CCN(C)CC3)nc(-n3cc(C)sc3=N)n2)cc1 [Example 67] | < 50% |
